# Earlier results, collected in US20160303203A1, “COMPOSITIONS AND METHODS FOR THE TREATMENT OF WOUNDS” (priority 2013, published 2016).
# Tested on: diabetic ulcers
# Conditions: patients with diabetic ulcers treated with phenytoin; control group 45 days
smiles,measurement,value
"O=C1NC(=O)C(c2ccccc2)(c2ccccc2)N1 [phenytoin, 5.5-diphenyl-2,4-imidazolidinedione]",mean healing time,21 days
